Values after ≈ are worked out from the molar mass of the structure shown. Active and inactive are the calls of the source. The rule behind the calls is not given here.
Key:
Pseudomonas aeruginosa [1] = assay: Antibacterial activity against Pseudomonas aeruginosa KCTC 1637 strain assessed as bacterial growth inhibition measured at 18 to 24 hrs by microdilution assay; type: functional; conditions: time 18-24 hrs
Staphylococcus aureus [2] = assay: Additive antibacterial activity against multidrug-resistant Staphylococcus aureus CCARM 3089 strain assessed as ciprofloxacin fractional inhibitory concentration by checkerboard assay; type: functional
Pseudomonas aeruginosa [3] = assay: Synergistic antibacterial activity against multidrug-resistant Pseudomonas aeruginosa CCARM 2095 strain assessed as ciprofloxacin MIC by checkerboard assay; type: functional
Lipopolysaccharide (LPS) [4] = assay: Binding affinity to Escherichia coli O111:B4 lipopolysaccharide assessed as suppression of FTIC labeled LPS binding to mouse RAW264.7 cells at 20 ug/ml pretreated LPS with cells for 1 hr followed by compound addition measured after 1 hr by flow cytometer assay (reference value: 48.12%); type: cell-based; conditions: dose 20.0 µg/ml
Staphylococcus aureus [5] = assay: Antibacterial activity against Staphylococcus aureus KCTC 1621 strain assessed as bacterial growth inhibition measured at 18 to 24 hrs in presence of 4 uM FeCl3 by microdilution assay; type: functional; conditions: time 18-24 hrs
Pseudomonas aeruginosa [6] = assay: Antibiofilm activity against multidrug-resistant Pseudomonas aeruginosa assessed as biofilm eradication; type: functional
Pseudomonas aeruginosa [7] = assay: Synergistic antibacterial activity against multidrug-resistant Pseudomonas aeruginosa CCARM 2095 strain assessed as fractional inhibitory concentration index in presence of oxacillin by checkerboard assay; type: functional
Staphylococcus aureus [8] = assay: Synergistic antibacterial activity against multidrug-resistant Staphylococcus aureus CCARM 3089 strain assessed as fractional inhibitory concentration index in presence of oxacillin by checkerboard assay; type: functional
[9] = system: Staphylococcus epidermidis; assay: Antibacterial activity against Staphylococcus epidermidis KCTC 1917 strain assessed as bacterial growth inhibition measured at 18 to 24 hrs by microdilution assay; type: functional; conditions: time 18-24 hrs
Staphylococcus aureus [10] = assay: Antibacterial activity against Staphylococcus aureus KCTC 1621 strain assessed as bacterial growth inhibition measured at 18 to 24 hrs in presence of 20% human serum by microdilution assay; type: functional; conditions: time 18-24 hrs
Lipopolysaccharide (LPS) [11] = assay: Displacement of BODIPY-TR-cadaverine from Escherichia coli O111:B4 lipopolysaccharide assessed as increase in fluorescence at 5 ug/ml by fluorescence based assay relative to control; conditions: dose 5.0 µg/ml
Cell membrane [12] = assay: Induction of cell membrane depolarization in Staphylococcus aureus assessed as fluorescence intensity at 2 to 16 times MIC by DiSC3(5) dye based fluorescence assay; type: subcellular
Staphylococcus aureus [13] = assay: Synergistic antibacterial activity against multidrug-resistant Staphylococcus aureus CCARM 3089 strain assessed as fractional inhibitory concentration index in presence of ciprofloxacin by checkerboard assay; type: functional
Escherichia coli [14] = assay: Antibacterial activity against Escherichia coli KCTC 1682 strain assessed as bacterial growth inhibition measured at 18 to 24 hrs in presence of 2.5 mM CaCl2 by microdilution assay; type: functional; conditions: time 18-24 hrs
Pseudomonas aeruginosa [15] = assay: Synergistic antibacterial activity against multidrug-resistant Pseudomonas aeruginosa CCARM 2095 strain assessed as ciprofloxacin fractional inhibitory concentration in presence of ciprofloxacin by checkerboard assay; type: functional
Pseudomonas aeruginosa [16] = assay: Synergistic antibacterial activity against multidrug-resistant Pseudomonas aeruginosa CCARM 2095 strain assessed as chloramphenicol fractional inhibitory concentration in presence of chloramphenicol by checkerboard assay; type: functional
Cell membrane [17] = assay: Induction of cell membrane damage in Escherichia coli KCTC 1682 assessed as increase in fluorescent intensity at 2 times MIC incubated for 30 mins by PI staining based flow cytometry assay (reference value: 9.79 %); type: subcellular
Staphylococcus aureus [18] = assay: Antibacterial activity against methicillin-resistant Staphylococcus aureus CCARM 3089 strain assessed as bacterial growth inhibition by checkerboard assay; type: functional
Staphylococcus aureus [19] = assay: Synergistic antibacterial activity against methicillin-resistant Staphylococcus aureus CCARM 3089 strain assessed as ciprofloxacin MIC by checkerboard assay; type: functional
RAW264.7 [20] = assay: Antiinflammatory activity in LPS-induced mouse RAW264.7 cells assessed as reduction in NO production at 5 ug/ml measured after 72 hrs by ELISA assay relative to control; type: functional
RAW264.7 [21] = assay: Antiinflammatory activity in LPS-induced mouse RAW264.7 cells assessed as reduction in TNF alpha level at 20 ug/ml measured after 72 hrs by ELISA assay relative to control; type: functional
Staphylococcus aureus [22] = assay: Synergistic antibacterial activity against methicillin-resistant Staphylococcus aureus CCARM 3089 strain assessed as bacterial growth inhibition in presence of oxacillin by checkerboard assay; type: functional
Pseudomonas aeruginosa [23] = assay: Antibiofilm activity against multidrug-resistant Pseudomonas aeruginosa assessed as inhibition of biofilm formation; type: functional
Pseudomonas aeruginosa [24] = assay: Antibacterial activity against multidrug-resistant Pseudomonas aeruginosa CCARM 2109 strain assessed as bacterial growth inhibition measured at 18 to 24 hrs by microdilution assay; type: functional; conditions: time 18-24 hrs
Pseudomonas aeruginosa [25] = assay: Synergistic antibacterial activity against multidrug-resistant Pseudomonas aeruginosa CCARM 2095 strain assessed as bacterial growth inhibition in presence of chloramphenicol by checkerboard assay; type: functional
RAW264.7 [26] = assay: Antiinflammatory activity in LPS-induced mouse RAW264.7 cells assessed as reduction in iNOS mRNA expression level at 5 ug/ml measured after 18 hrs by RT-PCR assay relative to control; type: functional, cell-based; conditions: dose 5.0 µg/ml
Staphylococcus aureus [27] = assay: Synergistic antibacterial activity against methicillin-resistant Staphylococcus aureus CCARM 3089 strain assessed as bacterial growth inhibition in presence of ciprofloxacin by checkerboard assay; type: functional
Pseudomonas aeruginosa [28] = assay: Synergistic antibacterial activity against multidrug-resistant Pseudomonas aeruginosa CCARM 2095 strain assessed as bacterial growth inhibition by checkerboard assay; type: functional
Staphylococcus aureus [29] = assay: Synergistic antibacterial activity against methicillin-resistant Staphylococcus aureus CCARM 3089 strain assessed as fractional inhibitory concentration in presence of ciprofloxacin by checkerboard assay; type: functional
Pseudomonas aeruginosa [30] = assay: Antibacterial activity against multidrug-resistant Pseudomonas aeruginosa CCARM 2095 strain assessed as bacterial growth inhibition measured at 18 to 24 hrs by microdilution assay; type: functional; conditions: time 18-24 hrs
Escherichia coli [31] = assay: Antibacterial activity against Escherichia coli KCTC 1682 strain assessed as bacterial growth inhibition measured after 6 hrs in presence of trypsin by radial diffusion assay; type: functional, organism-based
Pseudomonas aeruginosa [32] = assay: Synergistic antibacterial activity against multidrug-resistant Pseudomonas aeruginosa CCARM 2095 strain assessed as chloramphenicol fractional inhibitory concentration by checkerboard assay; type: functional
Escherichia coli [33] = assay: Antibacterial activity against Escherichia coli KCTC 1682 strain assessed as bacterial growth inhibition measured at 18 to 24 hrs by microdilution assay; type: functional; conditions: time 18-24 hrs
Staphylococcus aureus [34] = assay: Antibacterial activity against Staphylococcus aureus KCTC 1621 strain assessed as bacterial growth inhibition measured at 18 to 24 hrs in presence of 1 mM MgCl2 by microdilution assay; type: functional; conditions: time 18-24 hrs
Enterococcus faecium = assay: Antibacterial activity against vancomycin-resistant Enterococcus faecium ATCC 51559 strain assessed as bacterial growth inhibition measured at 18 to 24 hrs by microdilution assay; type: functional; conditions: time 18-24 hrs
Pseudomonas aeruginosa [35] = assay: Synergistic antibacterial activity against multidrug-resistant Pseudomonas aeruginosa CCARM 2095 strain assessed as oxacillin fractional inhibitory concentration in presence of oxacillin by checkerboard assay; type: functional
Escherichia coli [36] = assay: Antibacterial activity against Escherichia coli KCTC 1682 strain assessed as bacterial growth inhibition measured after 6 hrs in presence of chymotrypsin by radial diffusion assay; type: functional, organism-based

NCCCN(CCCN)c1nc(NCc2ccccc2)nc(N2CC(Cc3ccccc3)N(c3nc(NCc4ccccc4)nc(N(CCCN)CCCN)n3)CC2Cc2ccccc2)n1 (stereo not given)
MIC (Pseudomonas aeruginosa [1]): 10 µM (≈ 8.93 µg/mL) | FIC (Staphylococcus aureus [2]): 0.125 | MIC (Pseudomonas aeruginosa [3]): 64 µg/mL | Flu intensity (Lipopolysaccharide (LPS) [4]): 27.4% | MIC (Staphylococcus aureus [5]): 5 µM | MBEC50 (Pseudomonas aeruginosa [6]): 10 µM | MBEC90 (Pseudomonas aeruginosa [6]): 39.8 µM | fractional inhibitory concentration index (FICI) (Pseudomonas aeruginosa [7]): 0.5 | fractional inhibitory concentration index (FICI) (Staphylococcus aureus [8]): 0.375 | MIC [9]: 5 µM (≈ 4.47 µg/mL) | MIC (Staphylococcus aureus [10]): 10 µM | Activity (Lipopolysaccharide (LPS) [11]): > 50% | Activity (Cell membrane [12]): inactive | fractional inhibitory concentration index (FICI) (Staphylococcus aureus [13]): 0.375 | MIC (Escherichia coli [14]): 5 µM | FIC (Pseudomonas aeruginosa [15]): 0.25 | FIC (Pseudomonas aeruginosa [16]): 0.25 | Flu intensity (Cell membrane [17]): 3.03% | MIC (Staphylococcus aureus [18]): 4 µg/mL | MIC (Staphylococcus aureus [19]): 64 µg/mL | inhibition at 5 µg/mL (RAW264.7 [20]): 75.7% | inhibition at 20 µg/mL (RAW264.7 [21]): 95.4% | MIC (Staphylococcus aureus [22]): 1 µg/mL | MBEC50 (Pseudomonas aeruginosa [23]): 10 µM | MBEC90 (Pseudomonas aeruginosa [23]): 39.8 µM | MBIC (Pseudomonas aeruginosa [23]): 10 µM | MBIC50 (Pseudomonas aeruginosa [23]): 5 µM | MIC (Pseudomonas aeruginosa [24]): 10 µM (≈ 8.93 µg/mL) | MIC (Pseudomonas aeruginosa [25]): 4 µg/mL | Activity (RAW264.7 [26]): Active | MIC (Staphylococcus aureus [27]): 1 µg/mL | MIC (Pseudomonas aeruginosa [28]): 16 µg/mL | FIC (Staphylococcus aureus [29]): 0.25 | MIC (Pseudomonas aeruginosa [30]): 20 µM (≈ 17.9 µg/mL) | Activity (Escherichia coli [31]): Active | FIC (Pseudomonas aeruginosa [32]): 0.125 | MIC (Escherichia coli [33]): 5 µM (≈ 4.47 µg/mL) | MIC (Staphylococcus aureus [34]): 10 µM | MIC (Enterococcus faecium): 10 µM (≈ 8.93 µg/mL) | FIC (Pseudomonas aeruginosa [35]): 0.25 | Activity (Escherichia coli [36]): Active

NCCCCNc1nc(NCCCCN)nc(N2CC(Cc3ccccc3)N(c3nc(NCCCCN)nc(NCCCCN)n3)CC2Cc2ccccc2)n1 (stereo not given)
MIC (Pseudomonas aeruginosa [1]): 5.2 µM (≈ 4 µg/mL) | FIC (Staphylococcus aureus [2]): 0.125 | MIC (Pseudomonas aeruginosa [3]): 128 µg/mL | Flu intensity (Lipopolysaccharide (LPS) [4]): 21.2% | MIC (Staphylococcus aureus [5]): 20.8 µM | fractional inhibitory concentration index (FICI) (Pseudomonas aeruginosa [7]): 0.5 | fractional inhibitory concentration index (FICI) (Staphylococcus aureus [8]): 0.5 | MIC [9]: 5.2 µM (≈ 4 µg/mL) | MIC (Staphylococcus aureus [10]): 10.4 µM | Activity (Lipopolysaccharide (LPS) [11]): > 50% | Activity (Cell membrane [12]): inactive | fractional inhibitory concentration index (FICI) (Staphylococcus aureus [13]): 0.375 | MIC (Escherichia coli [14]): 10.4 µM | FIC (Pseudomonas aeruginosa [15]): 0.25 | FIC (Pseudomonas aeruginosa [16]): 0.25 | Flu intensity (Cell membrane [17]): 6.03% | MIC (Staphylococcus aureus [18]): 4 µg/mL | MIC (Staphylococcus aureus [19]): 64 µg/mL | inhibition at 5 µg/mL (RAW264.7 [20]): 72.6% | inhibition at 20 µg/mL (RAW264.7 [21]): 97.2% | MIC (Staphylococcus aureus [22]): 1 µg/mL | MIC (Pseudomonas aeruginosa [24]): 10.4 µM (≈ 8 µg/mL) | MIC (Pseudomonas aeruginosa [25]): 8 µg/mL | Activity (RAW264.7 [26]): Active | MIC (Staphylococcus aureus [27]): 1 µg/mL | MIC (Pseudomonas aeruginosa [28]): 32 µg/mL | FIC (Staphylococcus aureus [29]): 0.25 | MIC (Pseudomonas aeruginosa [30]): 41.6 µM (≈ 32 µg/mL) | Activity (Escherichia coli [31]): Active | FIC (Pseudomonas aeruginosa [32]): 0.125 | MIC (Escherichia coli [33]): 10.4 µM (≈ 8 µg/mL) | MIC (Staphylococcus aureus [34]): 5.2 µM | MIC (Enterococcus faecium): 41.6 µM (≈ 32 µg/mL) | FIC (Pseudomonas aeruginosa [35]): 0.25 | Activity (Escherichia coli [36]): Active

NCCNc1nc(NCCN)nc(N2CC(Cc3ccccc3)N(c3nc(NCCN)nc(NCCN)n3)CC2Cc2ccccc2)n1 (stereo not given)
MIC (Pseudomonas aeruginosa [1]): 6.1 µM (≈ 4.01 µg/mL) | MIC (Pseudomonas aeruginosa [3]): 256 µg/mL | Flu intensity (Lipopolysaccharide (LPS) [4]): 33.4% | MIC (Staphylococcus aureus [5]): 6.1 µM | MBEC50 (Pseudomonas aeruginosa [6]): 24.3 µM | MBEC90 (Pseudomonas aeruginosa [6]): 97.3 µM | fractional inhibitory concentration index (FICI) (Staphylococcus aureus [8]): 0.5 | MIC [9]: 6.1 µM (≈ 4.01 µg/mL) | MIC (Staphylococcus aureus [10]): 12.2 µM | Activity (Cell membrane [12]): inactive | MIC (Escherichia coli [14]): 6.1 µM | FIC (Pseudomonas aeruginosa [15]): 0.25 | Flu intensity (Cell membrane [17]): 8.57% | MIC (Staphylococcus aureus [18]): 32 µg/mL | inhibition at 5 µg/mL (RAW264.7 [20]): 31.5% | inhibition at 20 µg/mL (RAW264.7 [21]): 72.4% | MIC (Staphylococcus aureus [22]): 8 µg/mL | MBEC50 (Pseudomonas aeruginosa [23]): 24.3 µM | MBEC90 (Pseudomonas aeruginosa [23]): 97.3 µM | MBIC (Pseudomonas aeruginosa [23]): 24.3 µM | MBIC50 (Pseudomonas aeruginosa [23]): 3 µM | MIC (Pseudomonas aeruginosa [24]): 24.3 µM (≈ 16 µg/mL) | Activity (RAW264.7 [26]): Active | MIC (Pseudomonas aeruginosa [30]): 24.3 µM (≈ 16 µg/mL) | Activity (Escherichia coli [31]): Active | MIC (Escherichia coli [33]): 6.1 µM (≈ 4.01 µg/mL) | MIC (Staphylococcus aureus [34]): 6.1 µM | MIC (Enterococcus faecium): 24.3 µM (≈ 16 µg/mL) | Activity (Escherichia coli [36]): Active
